Holding throughout (assay type): biochemical
Holding throughout (settings): single triphosphate offered to enzyme/primer/template complex, template dG; 37° C. for 45 min; denaturing PAGE

One experiment concerns the target T1, human polymerase γ (Homo sapiens, UniProt P54098).
T1 sequence (P54098 1-1239): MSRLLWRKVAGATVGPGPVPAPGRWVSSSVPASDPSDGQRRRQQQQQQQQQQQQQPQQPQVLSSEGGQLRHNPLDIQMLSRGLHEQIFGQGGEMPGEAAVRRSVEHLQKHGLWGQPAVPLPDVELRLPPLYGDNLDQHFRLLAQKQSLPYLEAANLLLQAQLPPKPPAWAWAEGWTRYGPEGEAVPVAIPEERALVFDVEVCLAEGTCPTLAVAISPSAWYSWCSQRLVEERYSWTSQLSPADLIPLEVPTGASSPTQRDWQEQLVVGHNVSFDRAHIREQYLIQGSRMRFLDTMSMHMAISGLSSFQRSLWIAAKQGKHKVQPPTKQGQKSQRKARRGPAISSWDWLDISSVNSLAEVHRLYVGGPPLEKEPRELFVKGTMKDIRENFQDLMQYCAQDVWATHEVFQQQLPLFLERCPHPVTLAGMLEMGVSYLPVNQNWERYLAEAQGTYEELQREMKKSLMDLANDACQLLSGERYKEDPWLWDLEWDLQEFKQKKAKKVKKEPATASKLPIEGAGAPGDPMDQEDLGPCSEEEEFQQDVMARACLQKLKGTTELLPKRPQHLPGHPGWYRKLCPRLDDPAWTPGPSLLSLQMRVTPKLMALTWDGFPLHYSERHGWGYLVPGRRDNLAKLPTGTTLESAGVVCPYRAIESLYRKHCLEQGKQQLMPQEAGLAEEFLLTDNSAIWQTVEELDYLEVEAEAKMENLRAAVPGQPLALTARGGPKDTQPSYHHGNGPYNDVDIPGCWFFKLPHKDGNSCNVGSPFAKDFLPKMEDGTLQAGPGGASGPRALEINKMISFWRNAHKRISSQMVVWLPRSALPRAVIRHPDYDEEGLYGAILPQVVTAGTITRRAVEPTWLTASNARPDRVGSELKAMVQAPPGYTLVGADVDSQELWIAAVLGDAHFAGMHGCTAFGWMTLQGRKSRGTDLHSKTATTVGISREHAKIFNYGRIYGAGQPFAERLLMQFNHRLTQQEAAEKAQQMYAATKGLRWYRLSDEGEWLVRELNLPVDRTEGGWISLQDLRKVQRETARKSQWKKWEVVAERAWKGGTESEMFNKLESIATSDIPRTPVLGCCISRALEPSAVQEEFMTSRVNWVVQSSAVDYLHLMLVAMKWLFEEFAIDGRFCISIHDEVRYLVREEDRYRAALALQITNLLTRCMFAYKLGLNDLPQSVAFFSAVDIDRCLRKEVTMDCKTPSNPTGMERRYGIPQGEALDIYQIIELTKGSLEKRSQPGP
Description: Primer extension / chain termination with human polymerase γ. On the procedure: (§1) FIG. 13 illustrates the results for polymerases α and γ.
(§2) The following buffers were used for each polymerase: DNA polmerase α, 50 mM Tris.HCl pH 8.0, 5 mM Mg(AcO)2, 1 mM DTT, 1 mM spermidine; DNA pol β 50 mM Tris.HCl pH 8.0, 10 mM MgCl2, 1 mM DTT; DNA Polymerase γ 50 mM Tris.HCl pH 7.5, 100 mM NaCl, 2.5 MM MgCl2; HIV RT 50 mM Tris.HCl pH 8.5, 10 mM MgCl2, 40 mM KCl, 1 mM DTT. Template, primer and the corresponding buffer were mixed and heated to 100° C. for 1 min, allowed to cool to room temperature then placed on ice for 30 min. Once the template and primer had been allowed to anneal the polymerase was added. The appropriate amount of template-primer mixture was added to a vial containing water and the NTP(s) at the desired concentration. Typical reaction volumes were 10 μL. The reactions were incubated at 37° C. for 45 min. The reactions were quenched using Na-EDTA, heated at 100° C. for 1 min, and then flash frozen in liquid N2. Primer extensions were analyzed by standard methods by denaturing Polyacrylamide Gel Electrophoresis (PAGE).
(§3) Analytical polyacrylamide gel electrophoresis was performed using a 38×50 cm Sequi-Gen GT sequencing cell with a thickness of 0.4 mm and 15% monomer (acrylamide:bisacrylamide 19:1). Gels were run using 90 mM Tris-Borate 1 mM EDTA buffer (pH 8.3). Gels were imaged on Phosphorimager: 425 from Molecular Dynamics (Sunnyvale, Calif.).

The target in another experiment is human polymerase β (Homo sapiens, UniProt P06746). Description: Primer extension / chain termination with human polymerase β.
Text: (§4) The nucleoside incorporation experiment for one of the modified nucleotide analog compounds of the present invention is illustrated in FIGS. 12 and 13. […] The first nucleoside added to the primer should be a C residue (coded by the G residue of the template). A single triphosphate of dC or the above analog is offered to the enzyme/primer/template complex. […] In the remaining lanes of the gel, experiments have been designed with only the analog dd2ApyTP present with the primer template complex.
as §2, with “The reactions were quenched using Na-EDTA, heated at 100° C. for 1 min, and then flash frozen in liquid N2.” left out, “(PAGE). […]” for “(PAGE).”

The target of experiment [1] is HIV reverse transcriptase (Human immunodeficiency virus type 1 group M subtype B, UniProt P04585). In words: Primer extension / chain termination with HIV reverse transcriptase.
Text: as §4
as §2, with “The reactions were quenched using Na-EDTA, heated at 100° C. for 1 min, and then flash frozen in liquid N2.” left out, “(PAGE). […]” for “(PAGE).”

The target in the next experiment is T2, human polymerase α (Homo sapiens, UniProt P09884).
T2 sequence (P09884 1-1462): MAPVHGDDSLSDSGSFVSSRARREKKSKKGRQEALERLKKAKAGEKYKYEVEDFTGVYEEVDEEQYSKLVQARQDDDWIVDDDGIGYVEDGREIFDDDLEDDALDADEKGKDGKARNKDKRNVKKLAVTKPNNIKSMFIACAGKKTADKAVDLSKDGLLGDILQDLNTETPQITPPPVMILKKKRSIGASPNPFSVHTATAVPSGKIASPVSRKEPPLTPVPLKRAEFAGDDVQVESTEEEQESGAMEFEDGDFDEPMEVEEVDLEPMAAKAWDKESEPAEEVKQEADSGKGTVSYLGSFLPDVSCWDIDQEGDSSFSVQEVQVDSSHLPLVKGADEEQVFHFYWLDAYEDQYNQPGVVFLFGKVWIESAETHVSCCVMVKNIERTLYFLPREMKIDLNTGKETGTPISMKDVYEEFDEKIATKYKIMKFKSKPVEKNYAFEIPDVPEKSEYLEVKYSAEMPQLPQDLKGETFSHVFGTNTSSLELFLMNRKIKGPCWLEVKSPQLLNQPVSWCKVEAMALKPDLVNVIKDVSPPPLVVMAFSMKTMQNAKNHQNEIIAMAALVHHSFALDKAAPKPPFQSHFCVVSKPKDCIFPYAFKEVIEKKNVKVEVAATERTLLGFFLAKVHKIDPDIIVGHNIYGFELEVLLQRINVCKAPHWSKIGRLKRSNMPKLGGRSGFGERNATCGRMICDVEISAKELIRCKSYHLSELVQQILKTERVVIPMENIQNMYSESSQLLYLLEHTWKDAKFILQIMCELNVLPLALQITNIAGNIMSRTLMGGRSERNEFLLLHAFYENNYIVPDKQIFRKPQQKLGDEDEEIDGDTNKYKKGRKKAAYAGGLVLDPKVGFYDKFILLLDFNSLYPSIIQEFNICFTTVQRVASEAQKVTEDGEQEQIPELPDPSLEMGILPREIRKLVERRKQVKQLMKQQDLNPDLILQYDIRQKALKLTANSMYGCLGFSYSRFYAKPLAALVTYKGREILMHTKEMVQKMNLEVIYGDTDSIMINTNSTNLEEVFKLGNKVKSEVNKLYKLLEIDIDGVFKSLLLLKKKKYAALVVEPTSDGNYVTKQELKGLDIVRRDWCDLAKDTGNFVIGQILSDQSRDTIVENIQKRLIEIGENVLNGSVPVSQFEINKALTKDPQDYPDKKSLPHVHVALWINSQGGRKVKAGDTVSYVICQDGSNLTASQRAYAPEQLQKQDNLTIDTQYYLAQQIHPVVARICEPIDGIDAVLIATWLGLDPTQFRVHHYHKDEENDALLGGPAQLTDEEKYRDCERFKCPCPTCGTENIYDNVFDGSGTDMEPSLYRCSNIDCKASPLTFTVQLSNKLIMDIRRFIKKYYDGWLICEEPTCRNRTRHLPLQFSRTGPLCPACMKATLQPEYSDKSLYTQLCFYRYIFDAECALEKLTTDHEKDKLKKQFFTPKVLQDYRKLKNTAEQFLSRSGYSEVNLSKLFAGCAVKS
Description: Primer extension / chain termination with human polymerase α. On the procedure:
as §1, §2, §3

Turning to `Nc1ccn([C@H]2C[C@H](O)[C@@H](COP(=O)(O)OP(=O)(O)OP(=O)(O)O)O2)c(=O)n1` [dCTP], the “incorporation of the triphosphate into the primer (primer extension, gel, FIG. 13 right)” value on human polymerase γ was “normal incorporation into the primer”. For the same compound, at human polymerase β, the “incorporation of the triphosphate into the primer (primer extension, gel, FIG. 12 right)” value is reported as “incorporated by human polymerase β in the normal fashion”. The “incorporation of the triphosphate into the primer (primer extension, gel, FIG. 12 left)” value in experiment [1] was “two additions of the nucleoside”. Further, at human polymerase α, the “incorporation of the triphosphate into the primer (primer extension, gel, FIG. 13 left)” value is recorded as “normal incorporation into the primer”.

Values taken from patent US6914052B2, “Selective anti-viral nucleoside chain terminators” (The Trustees of Boston College, priority 2001, dated 2005).
